In experiment [1] the test system is Wnt activity (Sp5-Luc reporter, SW480 colon carcinoma cells). Put plainly: Screening assay for Wnt activity: Sp5-Luc reporter gene assay in SW480 cells. Format: cell-based. The note with it: Homo sapiens, 42 h incubation, luminescence. In a few lines:
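IC50 values come from variable-slope four-parameter fits of luciferase signal normalized to DMSO wells. Stable Sp5-Luc reporter SW480 colon carcinoma cells were exposed to compounds in a 3-fold dilution series (source plates from 10 mM stock) for forty-two hours at 37 °C.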

Experiment [2] has as its system primary human fibroblasts derived from IPF patients (LL29 cells). Put plainly: Inhibition of fibrosis: TGF-β1-treated primary human fibroblasts from IPF patients (LL29), αSMA staining. Format: cell-based. The following applies: Fibroblast, 96 h, TGF-β1 20 ng/mL, 4 days, % αSMA-positive cells. The source says:
The above synthesized compounds were screened using primary human fibroblasts (derived from IPF patients) treated with TGF-β1 to determine their ability to inhibit the fibrotic process.
Primary human fibroblasts derived from IPF patients (LL29 cells) [^1Xiaoqiu Liu, et. al., “Fibrotic Lung Fibroblasts Show Blunted Inhibition by cAMP Due to Deficient cAMP Response Element-Binding Protein Phosphorylation”, Journal of Pharmacology and Experimental Therapeutics (2005), 315(2), 678-687; ^2Watts, K. L., et. al., “RhoA signaling modulates cyclin D1 expression in human lung fibroblasts; implications for idiopathic pulmonary fibrosis”, Respiratory Research (2006), 7(1), 88] were obtained from American Type Culture Collection (ATCC) and expanded in F12 medium supplemented with 15% Fetal Bovine Serum and Penicillin/Streptomycin.
Each compound was dissolved in DMSO as a 10 mM stock and used to prepare compound source plates. Serial dilution (1:2, 11-point dose-response curves from 10 μM to 1.87 nM) and compound transfer was performed using the ECHO 550 (Labcyte, Sunnyvale, Calif.) into 384-well clear bottom assay plates (Greiner Bio-One) with appropriate DMSO backfill for a final DMSO concentration of 0.1%. LL29 cells were plated at 1,500 cells/well in 80 μl/well F12 medium supplemented with 1% Fetal Bovine Serum. One hour after addition of the cells, TGF-β1 (Peprotech; 20 ng/mL) was added to the plates to induce fibrosis (ref 1 and 2 above). Wells treated with TGF-β1 and containing DMSO were used as controls. Cells were incubated at 37° C. and 5% CO2 for 4 days. Following incubation for 4 days, SYTOX green nucleic acid stain (Life Technologies [Thermo Fisher Scientific]) was added to the wells at a final concentration of 1 uM and incubated at room temperature for 30 min. Cells were then fixed using 4% formaldehyde (Electron Microscopy Sciences), washed 3 times with PBS followed by blocking and permeabilization using 3% Bovine Serum Albumin (BSA; Sigma) and 0.3% Triton X-100 (Sigma) in PBS. Cells were then stained with antibody specific to α-smooth muscle actin (αSMA; Abcam) (ref 1 and 2 above) in 3% Bovine Serum Albumin (BSA; Sigma) and 0.3% Triton X-100 (Sigma) in PBS, and incubated overnight at 4° C. Cells were then washed 3 times with PBS, followed by incubation with Alexa Flor-647 conjugated secondary antibody (Life Technologies [Thermo Fisher Scientific]) and DAPI at room temperature for 1 hour. Cells were then washed 3 times with PBS and plates were sealed for imaging. αSMA staining was imaged by excitation at 630 nm and emission at 665 nm and quantified using the Compartmental Analysis program on the CellInsight CX5 (Thermo Scientific). Dead or apoptotic cells were excluded from analysis based on positive SYTOX green staining. % of total cells positive for αSMA were counted in each well and normalized to the average of 11 wells treated with TGF-β1 on the same plate using Dotmatics' Studies Software. The normalized averages (fold change over untreated) of 3 replicate wells for each compound concentration were used to create dose-responses curves and EC50 values were calculated using non-linear regression curve fit in the Dotmatics' Studies Software. The EC50 values are reported.

pEC50, pIC50: −log10 of the molar value. A value given as a limit tells only on which side of the number the result lay.

The compound `CC(C)C(=O)Nc1cncc(-c2ccc3[nH]nc(-c4nc5c(-c6cccnc6)nccc5[nH]4)c3c2)c1` [Compound 87, N-(5-(3-(4-(Pyridin-3-yl)-1H-imidazo[4,5-c]pyridin-2-yl)-1H-indazol-5-yl)pyridin-3-yl)isobutyramide] gave a negative-log IC50 (pIC50) in experiment [1] of 8.52. Further, the pEC50 in experiment [2] is 6.53.

As to `CC(C)Nc1cncc(-c2ccc3[nH]nc(-c4nc5c(-c6cccnc6)nccc5[nH]4)c3c2)c1` [Compound 90, N-Isopropyl-5-(3-(4-(pyridin-3-yl)-1H-imidazo[4,5-c]pyridin-2-yl)-1H-indazol-5-yl)pyridin-3-amine], the pIC50 in experiment [1] is 8.40. The compound further had a negative-log EC50 (pEC50) in experiment [2] of 8.05.

In experiment [1], `c1cncc(-c2nccc3[nH]c(-c4n[nH]c5ccc(-c6cncc(CN7CCCCC7)c6)cc45)nc23)c1` [Compound 93, 2-(5-(5-(Piperidin-1-ylmethyl)pyridin-3-yl)-1H-indazol-3-yl)-4-(pyridin-3-yl)-1H-imidazo[4,5-c]pyridine] gave a negative-log IC50 (pIC50) of 6.50. In experiment [2], this compound had a negative logarithm of the EC50 (pEC50) of 6.41.

As to `c1ccc(CNCc2cncc(-c3ccc4[nH]nc(-c5nc6c(-c7cccnc7)nccc6[nH]5)c4c3)c2)cc1` [Compound 101, N-Benzyl-1-(5-(3-(4-(pyridin-3-yl)-1H-imidazo[4,5-c]pyridin-2-yl)-1H-indazol-5-yl)pyridin-3-yl)methanamine], in experiment [1], the negative logarithm of the IC50 (pIC50) was 7.33. Moreover, the pEC50 in experiment [2] was 5.61.

Turning to `O=C(Nc1cncc(-c2ccc3[nH]nc(-c4nc5c(-c6ccncc6)nccc5[nH]4)c3c2)c1)C1CCCCC1` [Compound 126, N-(5-(3-(4-(Pyridin-4-yl)-1H-imidazo[4,5-c]pyridin-2-yl)-1H-indazol-5-yl)pyridin-3-yl)cyclohexanecarboxamide], the negative-log IC50 (pIC50) in experiment [1] is 5.93. Moreover, the negative logarithm of the EC50 (pEC50) in experiment [2] was 5.00.

As to `CCNCc1cncc(-c2ccc3[nH]nc(-c4nc5c(-c6ccccn6)nccc5[nH]4)c3c2)c1` [Compound 136, N-((5-(3-(4-(Pyridin-2-yl)-1H-imidazo[4,5-c]pyridin-2-yl)-1H-indazol-5-yl)pyridin-3-yl)methyl)ethanamine], in experiment [1], the pIC50 was 5.51. In experiment [2], this compound had a pEC50 of 8.05.

Consider `O=C(Nc1cncc(-c2ccc3[nH]nc(-c4nc5c(-c6ccccn6)nccc5[nH]4)c3c2)c1)C1CCC1` [Compound 150, N-(5-(3-(4-(Pyridin-2-yl)-1H-imidazo[4,5-c]pyridin-2-yl)-1H-indazol-5-yl)pyridin-3-yl)cyclobutanecarboxamide], for which the pIC50 in experiment [1] is 7.29. For the same compound, the pEC50 in experiment [2] was 5.82.

`c1ccc(-c2nccc3[nH]c(-c4n[nH]c5ccc(-c6cncc(CNCC7CCCC7)c6)cc45)nc23)nc1` [Compound 154, 1-Cyclopentyl-N-((5-(3-(4-(pyridin-2-yl)-1H-imidazo[4,5-c]pyridin-2-yl)-1H-indazol-5-yl)pyridin-3-yl)methyl)methanamine] gave a pIC50 in experiment [1] of 7.21. In experiment [2], this compound had a negative logarithm of the EC50 (pEC50) of 7.21.

For `CCC(=O)Nc1cncc(-c2ccc3[nH]nc(-c4nc5c(N6CCCCC6)nccc5[nH]4)c3c2)c1` [Compound 157, N-(5-(3-(4-(Piperidin-1-yl)-1H-imidazo[4,5-c]pyridin-2-yl)-1H-indazol-5-yl)pyridin-3-yl)propionamide], the pIC50 in experiment [1] was 6.74. In experiment [2], this compound showed a pEC50 of 7.15.

In the case of `CN(C)c1cncc(-c2ccc3[nH]nc(-c4nc5c(N6CCCCC6)nccc5[nH]4)c3c2)c1` [Compound 163, N,N-Dimethyl-5-(3-(4-(piperidin-1-yl)-1H-imidazo[4,5-c]pyridin-2-yl)-1H-indazol-5-yl)pyridin-3-amine], the pIC50 in experiment [1] was 8.52. In experiment [2], this compound showed a pEC50 of 5.81.

In experiment [1], `CN(C)Cc1cncc(-c2ccc3[nH]nc(-c4nc5c(N6CCCCC6)nccc5[nH]4)c3c2)c1` [Compound 169, N,N-Dimethyl-1-(5-(3-(4-(piperidin-1-yl)-1H-imidazo[4,5-c]pyridin-2-yl)-1H-indazol-5-yl)pyridin-3-yl)methanamine] gave a pIC50 of 5.40. Moreover, the negative-log EC50 (pEC50) in experiment [2] is 6.77.

In experiment [1], `O=C(Nc1cncc(-c2ccc3[nH]nc(-c4nc5c(N6CCCCC6)nccc5[nH]4)c3c2)c1)C1CC1` [Compound 175, N-(5-(3-(4-(Piperidin-1-yl)-1H-imidazo[4,5-c]pyridin-2-yl)-1H-indazol-5-yl)pyridin-3-yl)cyclopropanecarboxamide] had a negative logarithm of the IC50 (pIC50) of 6.56. In experiment [2], this compound had a pEC50 of 6.94.

As to `FC1(F)CCN(Cc2cncc(-c3ccc4[nH]nc(-c5nc6c(N7CCCCC7)nccc6[nH]5)c4c3)c2)C1` [Compound 181, 2-(5-(5-((3,3-Difluoropyrrolidin-1-yl)methyl)pyridin-3-yl)-1H-indazol-3-yl)-4-(piperidin-1-yl)-1H-imidazo[4,5-c]pyridine], the negative-log IC50 (pIC50) in experiment [1] is 7.17. The compound further gave a pEC50 in experiment [2] of 7.09.

The compound `Cc1cn(-c2nccc3[nH]c(-c4n[nH]c5ccc(-c6cncc(NC(=O)CC(C)C)c6)cc45)nc23)cn1` [Compound 184, 3-Methyl-N-(5-(3-(4-(4-methyl-1H-imidazol-1-yl)-1H-imidazo[4,5-c]pyridin-2-yl)-1H-indazol-5-yl)pyridin-3-yl)butanamide] gave a pIC50 in experiment [1] of 8.70. In addition, in experiment [2], the negative logarithm of the EC50 (pEC50) was 7.31.

Consider `Cc1cn(-c2nccc3[nH]c(-c4n[nH]c5ccc(-c6cncc(NC(=O)C(C)(C)C)c6)cc45)nc23)cn1` [Compound 190, N-(5-(3-(4-(4-Methyl-1H-imidazol-1-yl)-1H-imidazo[4,5-c]pyridin-2-yl)-1H-indazol-5-yl)pyridin-3-yl)pivalamide], for which, in experiment [1], the negative logarithm of the IC50 (pIC50) was 8.30. In experiment [2], this compound showed a negative logarithm of the EC50 (pEC50) of 7.30.

Consider `Cc1cn(-c2nccc3[nH]c(-c4n[nH]c5ccc(-c6cncc(NC(=O)C7CCC7)c6)cc45)nc23)cn1` [Compound 202, N-(5-(3-(4-(4-Methyl-1H-imidazol-1-yl)-1H-imidazo[4,5-c]pyridin-2-yl)-1H-indazol-5-yl)pyridin-3-yl)cyclobutanecarboxamide], for which the pIC50 in experiment [1] is > 9.00. Also, the pEC50 in experiment [2] is 7.89.

The compound `CC(C)C(=O)Nc1cncc(-c2ccc3[nH]nc(-c4nc5c(N6CCN(C)CC6)nccc5[nH]4)c3c2)c1` [Compound 217, N-(5-(3-(4-(4-Methylpiperazin-1-yl)-1H-imidazo[4,5-c]pyridin-2-yl)-1H-indazol-5-yl)pyridin-3-yl)isobutyramide] had a negative logarithm of the IC50 (pIC50) in experiment [1] of 6.61. Moreover, the negative-log EC50 (pEC50) in experiment [2] is 5.35.

On to `CN1CCN(c2nccc3[nH]c(-c4n[nH]c5ccc(-c6cncc(CN7CCCCC7)c6)cc45)nc23)CC1` [Compound 223, 4-(4-Methylpiperazin-1-yl)-2-(5-(5-(piperidin-1-ylmethyl)pyridin-3-yl)-1H-indazol-3-yl)-1H-imidazo[4,5-c]pyridine], for which the pIC50 in experiment [1] was 6.76. In experiment [2], this compound had a pEC50 of 5.95.

Regarding `CN1CCN(c2nccc3[nH]c(-c4n[nH]c5ccc(-c6cncc(NC(=O)CC(C)(C)C)c6)cc45)nc23)CC1` [Compound 224, 3,3-Dimethyl-N-(5-(3-(4-(4-methylpiperazin-1-yl)-1H-imidazo[4,5-c]pyridin-2-yl)-1H-indazol-5-yl)pyridin-3-yl)butanamide], the pIC50 in experiment [1] is 6.17. In experiment [2], the pEC50 was 5.96.

In experiment [1], `CN1CCN(c2nccc3[nH]c(-c4n[nH]c5ccc(-c6cncc(NC(=O)C7CCCC7)c6)cc45)nc23)CC1` [Compound 229, N-(5-(3-(4-(4-Methylpiperazin-1-yl)-1H-imidazo[4,5-c]pyridin-2-yl)-1H-indazol-5-yl)pyridin-3-yl)cyclopentanecarboxamide] had a negative logarithm of the IC50 (pIC50) of 6.15. Also, in experiment [2], the negative logarithm of the EC50 (pEC50) was 5.00.

Source of the values: US10081631B2, “2-(1H-indazol-3-yl)-1H-imidazo[4,5-C]pyridine and therapeutic uses thereof” (Samumed, LLC, priority 2014, dated 2018).
